According to article PMC6770071, “XIAP as a Target of New Small Organic Natural Molecules Inducing Human Cancer Cell Death” (Cancers, 2019):

melting point: 138.5 °C
Structure (SMILES): CCCCCCCC/C=C/CCc1cc(O)c(O)cc1O [Eriopodol C, (E)-5-(dodec-3′-enyl)benzene-1,2,4-triol]
